Structures are written as SMILES. Converted amounts (≈) assume the structure as drawn. Where only a bound is given, the exact number is not on record here.

This assay concerns P388. Briefly: Cytotoxicity against mouse P388 cells. In kind it is functional. Particulars: read-out: ED50 (the source's name).
As for `O=c1[nH]cc(F)c(=O)[nH]1` [FLUOROURACIL], the EC50 was 0.073 µg/mL (≈ 0.561 µM). On to `CCCCCC[C@@H](C)/C=C(C)/C=C/C(N)=O` [GYMNAMIDE], for which the EC50 was above 10 µg/mL. With `CCCCCC[C@@H](C)/C=C(C)/C=C/C(=O)N[C@H]1C[C@]2(O)C=C(Cl)C(=O)[C@@](Cl)([C@H]2OC)[C@H]1O` [GYMNASTATIN F], the EC50 is 0.13 µg/mL (≈ 0.266 µM).

Take `CCCCCC[C@@H](C)/C=C(C)/C=C/C(=O)N[C@H]1C[C@]2(O)[C@H]3O[C@H]3C(=O)[C@](Cl)([C@H]1O)[C@H]2OC` [GYMNASTATIN G]: the EC50 turned out to be 0.03 µg/mL (≈ 0.0638 µM). To `CCCCCC[C@@H](C)/C=C(C)/C=C/C(=O)N[C@@H](Cc1ccc(O)cc1)C(=O)OC` [GYMNASTATIN H] belongs above 10 µg/mL.

Values taken from ChEMBL document CHEMBL1158070, “Gymnastatins F-H, cytostatic metabolites from the sponge-derived fungus Gymnascella dankaliensis” (2006).
